Where “and” joins values, the source holds several entries; their conditions need not be identical. Equal values may be shown once. Inconclusive results and toxic doses are left out. How the source made its calls: active means survival T/C of 150% or more; inactive means T/C below 125% in these data.
Test system: P388 leukemia ip, CD2F1 mice, survival T/C
Experiment: NCI In Vivo Anticancer Drug Screen. Data for tumor model P388 Leukemia (intraperitoneal) in CD2F1 (CDF1) mice
Details: endpoint: median survival time, higher = longer survival
How it was run: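 Mice carrying the transplanted tumor received test compound or vehicle. Survival was recorded in each group, and the value is the treated-group measurement divided by that of the vehicle-treated control group.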

[1] = dose: 60.0 mg/kg/injection, schedule: Q01DX005 (ip), vehicle: saline with Tween-80
[2] = dose: 120.0 mg/kg/injection, schedule: Q01DX005 (ip), vehicle: saline with Tween-80
[3] = dose: 240.0 mg/kg/injection, schedule: Q01DX005 (ip), vehicle: saline with Tween-80
[4] = dose: 100.0 mg/kg/injection, schedule: Q01DX009 (ip), vehicle: Klucel (hydroxypropylcellulose) (HPC)
[5] = dose: 200.0 mg/kg/injection, schedule: Q01DX009 (ip), vehicle: Klucel (hydroxypropylcellulose) (HPC)
[6] = dose: 100.0 mg/kg/injection, schedule: Q04DX003 (ip), vehicle: Klucel (hydroxypropylcellulose) (HPC)
[7] = dose: 200.0 mg/kg/injection, schedule: Q04DX003 (ip), vehicle: Klucel (hydroxypropylcellulose) (HPC)

Measured: T/C

COC1OC(COC(C)=O)C(N(C)C(C)=O)C1OC(C)=O (stereo unspecified)
inactive: dose: 60.0 mg/kg/injection, schedule: Q01DX005 (ip), vehicle: saline 103 % of control | dose: 120.0 mg/kg/injection, schedule: Q01DX005 (ip), vehicle: saline 96 % of control | dose: 240.0 mg/kg/injection, schedule: Q01DX005 (ip), vehicle: saline 104 % of control

C/C=C(\C)C(=O)OCc1c2c(c(OC)c3occ(C)c13)C=CCC2C (stereo unspecified)
inactive: dose: 5.5 mg/kg/injection, schedule: Q01DX009 (ip), vehicle: Klucel (hydroxypropylcellulose) (HPC) 94 % of control | dose: 11.0 mg/kg/injection, schedule: Q01DX009 (ip), vehicle: Klucel (hydroxypropylcellulose) (HPC) 100 % of control | dose: 22.0 mg/kg/injection, schedule: Q01DX009 (ip), vehicle: Klucel (hydroxypropylcellulose) (HPC) 100 % of control | dose: 44.0 mg/kg/injection, schedule: Q01DX009 (ip), vehicle: Klucel (hydroxypropylcellulose) (HPC) 104 % of control

O=C(O)c1cc(Cl)nnc1Cl
inactive: dose: 50.0 mg/kg/injection, schedule: Q01DX005 (ip), vehicle: saline 109 % of control | dose: 100.0 mg/kg/injection, schedule: Q01DX005 (ip), vehicle: saline 100 % of control | dose: 200.0 mg/kg/injection, schedule: Q01DX005 (ip), vehicle: saline 104 % of control

CCCCN=[N+]=[N-]
inactive: dose: 12.5 mg/kg/injection, schedule: Q01DX009 (ip), vehicle: water 91 % of control | dose: 25.0 mg/kg/injection, schedule: Q01DX009 (ip), vehicle: water 98 % of control | dose: 50.0 mg/kg/injection, schedule: Q01DX009 (ip), vehicle: water 98 % of control | dose: 100.0 mg/kg/injection, schedule: Q01DX009 (ip), vehicle: water 100 % of control | dose: 200.0 mg/kg/injection, schedule: Q01DX009 (ip), vehicle: water 96 % of control

NC(=S)N/N=C\C(=O)c1ccccc1O
inactive: dose: 9.4 mg/kg/injection, schedule: Q01DX009 (ip), vehicle: saline with Tween-80 100 % of control (2×) and 101 % of control | dose: 18.75 mg/kg/injection, schedule: Q01DX009 (ip), vehicle: saline with Tween-80 90 % of control and 95 % of control and 98 % of control | dose: 75.0 mg/kg/injection, schedule: Q01DX009 (ip), vehicle: saline with Tween-80 99 % of control and 105 % of control | dose: 150.0 mg/kg/injection, schedule: Q01DX009 (ip), vehicle: saline with Tween-80 103 % of control

COc1cc(/C=N/NC(=O)COc2ccccc2)ccc1O
inactive: [1] 100 % of control | [2] 103 % of control | [3] 98 % of control

COc1ccc(-c2cc(-c3ccccc3)[nH]c(=O)c2N(C)C)cc1
inactive: dose: 25.0 mg/kg/injection, schedule: Q01DX009 (ip), vehicle: Klucel (hydroxypropylcellulose) (HPC) 90 % of control | dose: 50.0 mg/kg/injection, schedule: Q01DX009 (ip), vehicle: Klucel (hydroxypropylcellulose) (HPC) 89 % of control | [4] 89 % of control | [5] 86 % of control

O=C1Cn2c(cc(=O)c3ccccc32)O1
inactive: dose: 25.0 mg/kg/injection, schedule: Q01DX001 (ip), vehicle: saline with Tween-80 109 % of control | dose: 50.0 mg/kg/injection, schedule: Q01DX001 (ip), vehicle: saline with Tween-80 116 % of control | dose: 100.0 mg/kg/injection, schedule: Q01DX001 (ip), vehicle: saline with Tween-80 116 % of control

COc1cccc2c1C(=O)c1c(O)c3c(c(O)c1C2=O)CC(O)(C(C)=O)CC3OC1CC(NCC2OC(C(=O)O)C(O)C2O)C(O)C(C)O1 (stereo unspecified)
inactive: dose: 3.13 mg/kg/injection, schedule: Q04DX003 (ip), vehicle: water 99 % of control | dose: 6.25 mg/kg/injection, schedule: Q04DX003 (ip), vehicle: water 102 % of control | dose: 12.5 mg/kg/injection, schedule: Q04DX003 (ip), vehicle: water 109 % of control | dose: 25.0 mg/kg/injection, schedule: Q04DX003 (ip), vehicle: water 116 % of control | dose: 50.0 mg/kg/injection, schedule: Q04DX003 (ip), vehicle: water 110 % of control

COC(=O)/C=C(\CCl)N=[N+]=[N-]
inactive: [1] 108 % of control | [2] 109 % of control | [3] 107 % of control

NS(=O)(=O)c1ccc(Nc2c3ccccc3nc3ccccc23)cc1
inactive: [6] 110 % of control and 86 % of control (2×) | dose: 118.0 mg/kg/injection, schedule: Q04DX003 (ip), vehicle: Klucel (hydroxypropylcellulose) (HPC) 93 % of control | [7] 118 % of control and 90 % of control | dose: 236.0 mg/kg/injection, schedule: Q04DX003 (ip), vehicle: Klucel (hydroxypropylcellulose) (HPC) 99 % of control | dose: 400.0 mg/kg/injection, schedule: Q04DX003 (ip), vehicle: Klucel (hydroxypropylcellulose) (HPC) 120 % of control and 88 % of control and 95 % of control | dose: 472.0 mg/kg/injection, schedule: Q04DX003 (ip), vehicle: Klucel (hydroxypropylcellulose) (HPC) 99 % of control

COc1ccc(CSC(=S)Nc2ccc(N=Nc3ccccc3)cc2)cc1
inactive: dose: 50.0 mg/kg/injection, schedule: Q01DX009 (ip), vehicle: saline 107 % of control | dose: 100.0 mg/kg/injection, schedule: Q01DX009 (ip), vehicle: saline 104 % of control | dose: 200.0 mg/kg/injection, schedule: Q01DX009 (ip), vehicle: saline 119 % of control

COc1ccc(/C=N/N2CN(C(C)C(=O)O)B(NC34CC5CC(CC(C5)C3)C4)N=C2N)cc1OC (stereo unspecified)
inactive: [1] 104 % of control | [2] 99 % of control | [3] 93 % of control

CCN(CC)C1(C(F)C(F)(F)F)OCC2(CO1)COC(C(F)C(F)(F)F)(N(CC)CC)OC2 (stereo unspecified)
inactive: [1] 98 % of control | [2] 104 % of control | [3] 91 % of control

O=c1oc2ccccc2c(O)c1C(c1ccc2c(c1)OCO2)N1CCCC1 (stereo unspecified)
inactive: dose: 15.0 mg/kg/injection, schedule: Q01DX005 (ip), vehicle: saline with Tween-80 100 % of control | dose: 30.0 mg/kg/injection, schedule: Q01DX005 (ip), vehicle: saline with Tween-80 102 % of control | [1] 99 % of control and 103 % of control

c1ccc(-c2nc3ccccc3[nH]2)nc1
inactive: dose: 25.0 mg/kg/injection, schedule: Q04DX003 (ip), vehicle: Klucel (hydroxypropylcellulose) (HPC) 101 % of control | dose: 50.0 mg/kg/injection, schedule: Q04DX003 (ip), vehicle: Klucel (hydroxypropylcellulose) (HPC) 96 % of control | [4] 115 % of control | [6] 101 % of control | [5] 99 % of control | [7] 93 % of control | dose: 400.0 mg/kg/injection, schedule: Q01DX009 (ip), vehicle: Klucel (hydroxypropylcellulose) (HPC) 101 % of control

O=C1C=CC(=O)N1c1ccc(Cl)cc1Cl
inactive: dose: 3.12 mg/kg/injection, schedule: Q04DX003 (ip), vehicle: saline with Tween-80 105 % of control | dose: 6.25 mg/kg/injection, schedule: Q04DX003 (ip), vehicle: saline with Tween-80 109 % of control | dose: 12.5 mg/kg/injection, schedule: Q04DX003 (ip), vehicle: saline with Tween-80 96 % of control

CCOC(=O)c1sc(=S)n(C(C)C)c1C
inactive: dose: 12.5 mg/kg/injection, schedule: Q01DX005 (ip), vehicle: saline with Tween-80 101 % of control | dose: 25.0 mg/kg/injection, schedule: Q01DX005 (ip), vehicle: saline with Tween-80 101 % of control | dose: 50.0 mg/kg/injection, schedule: Q01DX005 (ip), vehicle: saline with Tween-80 101 % of control and 102 % of control | dose: 100.0 mg/kg/injection, schedule: Q01DX005 (ip), vehicle: saline with Tween-80 100 % of control | dose: 200.0 mg/kg/injection, schedule: Q01DX005 (ip), vehicle: saline with Tween-80 98 % of control

C1CN(CC2CCC(CN3CCOCC3)O2)CCO1 (stereo unspecified)
inactive: dose: 3.12 mg/kg/injection, schedule: Q01DX005 (ip), vehicle: Klucel (hydroxypropylcellulose) (HPC) 96 % of control | dose: 6.25 mg/kg/injection, schedule: Q01DX005 (ip), vehicle: Klucel (hydroxypropylcellulose) (HPC) 97 % of control | dose: 12.5 mg/kg/injection, schedule: Q01DX005 (ip), vehicle: Klucel (hydroxypropylcellulose) (HPC) 100 % of control | dose: 25.0 mg/kg/injection, schedule: Q01DX005 (ip), vehicle: Klucel (hydroxypropylcellulose) (HPC) 114 % of control | dose: 50.0 mg/kg/injection, schedule: Q01DX005 (ip), vehicle: Klucel (hydroxypropylcellulose) (HPC) 96 % of control

COc1ccccc1C1C2CCCC(C2O)C(c2ccccc2OC)N1C (stereo unspecified)
inactive: dose: 100.0 mg/kg/injection, schedule: Q04DX003 (ip), vehicle: saline 99 % of control and 92 % of control | dose: 100.0 mg/kg/injection, schedule: Q04DX003 (ip), vehicle: suspension in saline 100 % of control | dose: 200.0 mg/kg/injection, schedule: Q04DX003 (ip), vehicle: saline 98 % of control and 102 % of control | dose: 200.0 mg/kg/injection, schedule: Q04DX003 (ip), vehicle: suspension in saline 107 % of control | dose: 400.0 mg/kg/injection, schedule: Q04DX003 (ip), vehicle: saline 98 % of control and 94 % of control | dose: 400.0 mg/kg/injection, schedule: Q04DX003 (ip), vehicle: suspension in saline 99 % of control

— PubChem BioAssay AID330 (DTP/NCI, 2004)
